# Tests used:
# Leishmania donovani [1] = experiment: Antileishmanial activity against Leishmania donovani MHOM/ET/67/HU3 promastigote after 72 hrs by MTT assay; type: functional, organism-based; conditions: MHOM/ET/67/HU3, 72 h
# Leishmania donovani [2] = experiment: Antileishmanial activity against Leishmania donovani MHOM/ET/67/HU3 intracellular amastigotes infected in human THP1 cells after 96 hrs by prolong-gold antifade-reagent/DAPI staining based assay; type: functional, organism-based; conditions: MHOM/ET/67/HU3, THP-1, 96 h
# [3] = Selectivity index, ratio of EC50 for cytotoxicity against human MRC5 cells to EC50 for antileishmanial activity against Leishmania donovani MHOM/ET/67/HU3 amastigotes infected in human THP1 cells; type: toxicity, cell-based; conditions: read-out: Ratio EC50
# THP-1 = experiment: Cytotoxicity against human THP1 cells assessed as reduction in cell viability after 72 hrs by MTT assay; type: cell-based; conditions: THP-1, 72 h
# [4] = Selectivity index, ratio of EC50 for cytotoxicity against human THP1 cells to EC50 for antileishmanial activity against Leishmania donovani MHOM/ET/67/HU3 amastigotes infected in human THP1 cells; type: toxicity, cell-based; conditions: read-out: Ratio EC50
# Leishmania donovani [5] = experiment: Potency index, ratio of amphotericin B EC50 to test compound EC50 for antileishmanial activity against Leishmania […] amastigote infected in THP1 cells; type: functional
# in vitro = conditions: human, microsomes
Compound,EC50 (Leishmania donovani [2]) [nM],"half-life at 2 h, 40 µM (in vitro) [min]",EC50 (Leishmania donovani [1]) [nM],selectivity ratio [3],EC50 (THP-1) [nM],selectivity ratio [4],Ratio EC50 (Leishmania donovani [5])
O=C(O)c1ccc(OCCCCCCCCCC[P+](c2ccccc2)(c2ccccc2)c2ccccc2)cc1O,< 200,,< 200,2 to 27,,,
COC(=O)c1ccc(OCCCCCCCCCC[P+](c2ccccc2)(c2ccccc2)c2ccccc2)cc1O,< 1000,,,,,2 to 27,
COC(=O)c1ccc(OCCCCCCCCCCCCCC[P+](c2ccccc2)(c2ccccc2)c2ccccc2)cc1C,< 1000,,,2 to 27,,,
CCOC(=O)c1c(C)cc(OCCCCCCCCCCCCCC[P+](c2ccccc2)(c2ccccc2)c2ccccc2)cc1O,< 1000,,,2 to 27,,,
O=C(O)Cc1ccccc1Nc1c(Cl)cccc1Cl [DICLOFENAC],,< 30,,,,,
O=C(OCCCCCCCCCCCC[n+]1cccc2ccccc21)c1ccc(O)cc1O,800,,< 200,,,3.7 to 5,

# Further lines, with some results ahead:
EC50 (Leishmania donovani [2]) [nM],"half-life at 2 h, 40 µM (in vitro) [min]",Compound,EC50 (Leishmania donovani [1]) [nM],selectivity ratio [3],EC50 (THP-1) [nM],selectivity ratio [4],Ratio EC50 (Leishmania donovani [5])
150,,Cc1cc(O)ccc1C(=O)OCCCCCCCCCCCCCC[P+](c1ccccc1)(c1ccccc1)c1ccccc1,90,,1840,12.3,
120,,Cc1cc(O)ccc1C(=O)OCCCCCCCCCCCCCC[P+](c1ccccc1)(c1ccccc1)c1ccccn1,180,,2350,19.6,
100,,Cc1cc(O)ccc1C(=O)CCCCCCCCCCCCCCC[P+](c1ccccc1)(c1ccccc1)c1ccccc1.[Br-],90,,2450,24.5,2
100,,Cc1cc(O)ccc1C(=O)CCCCCCCCCCCCCCC[P+](c1ccccc1)(c1ccccc1)c1ccccn1.[Br-],280,,2110,21.1,2

# — ChEMBL document CHEMBL4334518, “Discovery and Pharmacological Studies of 4-Hydroxyphenyl-Derived Phosphonium Salts Active in a Mouse Model of Visceral Leishmaniasis” (J Med Chem, 2019)
